Test results from patent US20080096939A1, “Process For Preparation Of Pramipexole By Chiral Chromatography” (priority 2004, published 2008).

Key:
dopamine D-2 = dopamine D-2 (Homo sapiens, UniProt P14416); details: compared with the R(+) enantiomer; cited from earlier work
[1] = acetonitrile:methanol (81:19)
Source text: Racemic pramipexole was subjected to preparative chromatography using Chiralpak® AD as the stationary phase and acetonitrile:methanol (81:19) as the mobile phase.

dopamine D-2, sequence (P14416 whole entry): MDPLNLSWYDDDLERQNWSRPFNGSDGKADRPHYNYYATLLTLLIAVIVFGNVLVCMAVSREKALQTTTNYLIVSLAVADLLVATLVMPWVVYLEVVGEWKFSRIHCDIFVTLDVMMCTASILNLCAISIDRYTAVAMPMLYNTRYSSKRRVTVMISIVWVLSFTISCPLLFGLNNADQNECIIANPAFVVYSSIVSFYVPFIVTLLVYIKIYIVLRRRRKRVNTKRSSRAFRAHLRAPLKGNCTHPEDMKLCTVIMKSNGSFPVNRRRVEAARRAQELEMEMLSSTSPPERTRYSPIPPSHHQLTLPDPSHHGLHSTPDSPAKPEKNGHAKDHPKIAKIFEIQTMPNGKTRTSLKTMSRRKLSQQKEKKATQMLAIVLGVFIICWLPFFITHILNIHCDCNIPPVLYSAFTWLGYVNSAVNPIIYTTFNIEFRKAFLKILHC

Row | Compound | dopaminergic activity of the S(−) enantiomer relative to the corresponding R(+) enantiomer (dopamine D-2) | solubility in the mobile phase [1] [mg/mL]
1 | CCCN[C@H]1CCc2nc(N)sc2C1 [Pramipexole, S(−)-2-amino-6-propylamino-4,5,6,7-tetrahydrobenzothiazole] | twice as high | –
2 | CCCNC1CCc2nc(N)sc2C1 (racemic) [Racemic pramipexole, R,S(±)-2-amino-6-propylamino-4,5,6,7-tetrahydrobenzothiazole] | – | > 40
